Entries after “also recorded” stand apart in the source; their conditions may differ. Where two headings read alike, the source gives them in different places.
Tests used:
[1] = tested on: HIV-1; conditions: 293T cells in culture; cited from earlier work
[2] = tested on: HSV-2; assay: HSV-2 release from infected Vero cells, plaque assay; conditions: for EC50: read-out: EC50 (μM) Inhibition of HSV-2 Budding at 24 h, HSV-2 infected Vero cells, virus released into media, plaque assay; for Titer of HSV-2 Media, 24 h / Titer of HSV-2 in media + cell lysate, 24 h / Titer of HSV-2 in media, 48 h: Vero cells
[3] = tested on: Vero cells; assay: Vero cell viability, 96 AQueous One Solution cell proliferation assay; format: cell-based
Description: (§1) Drug potency and cell toxicity. […] Cell toxicity experiments were repeated twice.

[4] = tested on: HSV-1; assay: Transmission electron microscopy of HSV-1 infected Vero cells, particle counts; conditions: 18 μM ilaprazole, 24 h, HSV-1, Vero cells
Description: (§2) Transmission electron Microscopy. Vero cells on glass cover slips were infected with HSV-2 at a MOI of 0.1 for two hours. Then 105 μM of tenatoprazole or 18 μM Ilaprazole was added and cells incubated for 24 hours. Tissue samples were fixed in 0.1 M sodium cacodylate buffer pH 7.3 containing 2% paraformaldehyde and 2.5% glutaraldehyde and post-fixed with 2% osmium tetroxide 427 in unbuffered aqueous solution. The samples were rinsed with distilled water, en bloc stained with 3% uranyl acetate, rinsed with distilled water, dehydrated in ascending grades of ethanol, transitioned with propylene oxide, embedded in the resin mixture of Embed 812 kit and cured in a 60° C. oven. Samples were sectioned on a Leica Ultracut UC6 ultramicrotome. 1 μm thick sections were collected and stained with Toluidine Blue O and 70 nm sections were collected on 200 mesh copper grids; thin sections were stained with uranyl acetate and Reynolds lead citrate. Transmission electron microscopy (TEM) was performed on a FEI Tecnai Spirit G2.

[5] = biological target: T1, Tsg101-UEV (Tsg101 amino acids 1-145) (Homo sapiens, UniProt Q99816); assay: Fluorescence thermal shift (FTS) assay, binding to Tsg101-UEV
T1 sequence (Q99816 1-145): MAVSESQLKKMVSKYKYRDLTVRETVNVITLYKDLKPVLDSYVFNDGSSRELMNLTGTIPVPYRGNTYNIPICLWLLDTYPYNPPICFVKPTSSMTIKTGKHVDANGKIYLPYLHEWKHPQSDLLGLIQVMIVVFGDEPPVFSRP
Description: The fluorescence-based thermal shift assay is based on the observation that a protein unfolds upon heating, exposing the hydrophobic residues within its tertiary structure. The unfolding temperature (Tm) is determined by the protein's primary sequence and solution environment. The FTS assay uses a fluorescent dye sensitive to a hydrophobic environment to probe protein stability and its modulation by small molecule ligands. The dye has a low fluorescence quantum yield when in a polar environment. Once in contact with the hydrophobic core normally buried within a folded protein that has become exposed during the thermal unfolding (melting) process, the quantum yield of the dye increases, thus providing a reporting signal. Furthermore, a protein's stability can be affected by ligand binding, resulting in an increase or decrease in its melting temperature. FTS assay uses the Tm shift upon binding of a ligand to identify hit compounds for drug discovery.
We screened chemical compounds using a fluorescence thermal shift (FTS) assay (27, 28) to identify small molecules that bind directly to a truncated form of Tsg101 (amino acids 1-145) which contains the Ubiquitin E2 variant (UEV) ubiquitin-binding domain (FIG. 1A, 1B, 1C). […] This truncated Tsg101, called Tsg101-UEV, was used because full-length Tsg101 has significant solubility issues in aqueous solution. Tsg101 is an adaptor protein and thus lacks a readily deployable functional assay, making FTS a tractable approach to identify interacting compounds. FTS monitors protein thermal denaturation using SYPRO® Orange, a dye which fluoresces when bound to hydrophobic surfaces, which allows monitoring of the changes in hydrophobic surface exposure during protein denaturation (27). Since ligand binding affects protein thermal stability, it can be detected through modulation of protein thermal denaturation (melting) as a shift in melting temperature (Tm). Tsg101-UEV has a well-defined melting curve suitable for FTS. We used the FTS assay to identify compounds that bind to Tsg101-UEV.
Fluorescence thermal shift (FTS) screening to identify small molecule binding to Tsg101-UEV. FTS using thermal shift elicited by the small molecule binding effect to protein stability. FTS monitors protein thermal denaturation using environment-sensitive dye Sypro® Orange which fluoresces when bound to hydrophobic surfaces, taking advantage of the changes in hydrophobic surface exposure in protein denaturation. Discovery of small molecule binding to target protein utilizes the observation that ligand binding affects protein thermal stability, and therefore can be detected through a shift in the protein's thermal denaturation (melting) temperature (Tm). We have employed FTS to reveal changes in thermodynamic properties of Tsg101 elicited by its interaction with a small molecule. […] A fluorescence dye Sypro® Orange (Invitrogen) was used for assay detection. The dye is excited at 473 nm and has a fluorescence emission at 610 nm. The dye binds to hydrophobic regions of a protein that are normally buried in a native protein structure. […] The Tsg101 fragment was premixed at a concentration of 2 μM with a 5× concentration of Sypro® Orange in HEPES buffer (100 mM HEPES, 150 mM NaCl, pH 7.5). Then 10 μl of the protein-dye mix was added to an assay plate and 10 to 50 nanoliters of compound, equal to 10 to 50 μM, were added with an acoustic transfer robot Echo550 (Labcyte, CA).

[6] = tested on: HSV-2; assay: Transmission electron microscopy of HSV-2 infected Vero cells, particle counts; conditions: 18 μM ilaprazole, 24 h, HSV-2, Vero cells
Description: Vero cells grown on glass cover slips were infected with HSV-2 at MOI of 0.1 pfu/cell for 2 h and then treated for 24 h with 105 μM tenatoprazole or vehicle control.
as §2

[7] = tested on: Vero cells; assay: Vero cell toxicity, WST-1 reagent; format: cell-based
Description: as §1

[8] = tested on: HIV-1; conditions: 293T cells, media, 24 h
Description: Effect of Ilaprazole on release of HIV-1 in vitro. […] To this end, cells were transfected with pR9-HIV-1Ba-L plasmid and release of virus into the media fraction was detected by monitoring the capsid (CA) protein (p24) via enzyme linked immunosorbent assay analysis. The drug was tested at concentrations between 0 and 240 μM and the effect of the drug on release of virus assessed (Table 4, column 2).
HIV-1 transfection of 293 T cells. 293T cells (American Type Culture Collection) were grown in a 24-well Clear Flat Bottom TC-treated Multiwell Cell Culture Plate using Dulbecco's modified Eagle's medium (Cellgro) containing fetal bovine serum (10%), 100 U/ml penicillin, 100 μg/ml streptomycin, and 292 μg/ml 1-glutamine (Cellgro). Cells were grown to 60-70% confluency at 37° C. and 5% CO2 408 prior to addition of drug treatment. Culture media was aspirated and replaced with media containing drug compound 7 hours prior to transfection of the plasmid encoding the HIV-1 genome. Transfection was done using reagent Polyethyleneimine (PEI, Polysciences). […] After 24 h and 48 h, tissue culture media was collected and passed through a 0.45-micron filter. Virus released from cells was quantified by media-associated p24 determined using fluorescently tagged CA targeting antibody (PerkinElmer) and equivalent amounts of p24 as standards.

[9] = tested on: 293T cells; assay: 293T cell viability, 96 Aqueous One reagent; format: cell-based
Description: as §1

[10] = tested on: HSV-1; assay: HSV-1 release from infected Vero cells, plaque assay; conditions: Vero cells

With Esomeprazole as the substance, how does the “Inhibition of release of infectious HIV-1 from 293T cells (earlier report)” value [1] read?
Its value is “quantitatively inhibit”.

What about the EC50 [2] of the same substance?
The EC50 was 140 µM.

Which “Cell toxicity at concentrations that block virus release” value ([3]; 24 h, result in words) does the source give for Ilaprazole here?
Its value is “did not observe cell toxicity”.

What about the “96 ® Cell Viablility OD490 nm 24 h” value ([3]; Ilaprazole 4.5 μM) of the same substance?
The value was 1.764.

And the “96 ® Cell Viablility OD490 nm 24 h” value ([3]; Ilaprazole 9.0 μM)?
Its value is 1.711.

What about the “96 ® Cell Viablility OD490 nm 24 h” value ([3]; Ilaprazole 13.5 μM) of the same substance?
Its value is 1.690.

What about the “96 ® Cell Viablility OD490 nm 24 h” value ([3]; Ilaprazole 18.0 μM) of the same substance?
The value was 1.737.

And the “96 ® Cell Viablility OD490 nm 24 h” value ([3]; Ilaprazole 54 μM)?
Its value is 1.658.

And the “96 ® Cell Viablility OD490 nm 24 h” value ([3]; Ilaprazole 270 μM)?
Its value is 0.466.

And the “Average number of virus particles in the nucleus” value [4]?
The value was 43 particles.

And the “Range of virus particles in the nucleus” value [4]?
The value was 15-166 particles.

What about the “Virus particles in the cytoplasm” value [4] of the same substance?
Its value is 0 particles.

What about the “Thermal shift (Tm shift) of Tsg101-UEV caused by compound” value ([5]; FTS dose response, result in words) of the same substance?
Its value is “largest thermal shift”.

And the “Tm shift of Tsg101 in the FTS assay on addition of DTT” value ([5]; with reducing agent DTT)?
The value was “blocked by the addition of DTT; also recorded: abolishes the Tm shift”.

And the “Average number of virus particles in the nucleus” value [6]?
Its value is 31 particles.

What about the “Range of virus particles in the nucleus” value [6] of the same substance?
Its value is 9-56 particles.

And the “Virus particles in the cytoplasm” value [6]?
Its value is 0 particles.

And the “WST-1 Cell Toxicity OD440-660 nm, 24 h” value ([7]; Ilaprazole 4.5 μM)?
The value was 1.058.

What about the “WST-1 Cell Toxicity OD440-660 nm, 24 h” value ([7]; Ilaprazole 9.0 μM) of the same substance?
Its value is 1.055.

What about the “WST-1 Cell Toxicity OD440-660 nm, 24 h” value ([7]; Ilaprazole 13.5 μM) of the same substance?
Its value is 0.950.

What about the “WST-1 Cell Toxicity OD440-660 nm, 24 h” value ([7]; Ilaprazole 27 μM) of the same substance?
Its value is 1.055.

What about the “WST-1 Cell Toxicity OD440-660 nm, 24 h” value ([7]; Ilaprazole 270 μM) of the same substance?
The value was 0.423.

And the “Titer of HSV-2 Media, 24 h” value ([2]; Ilaprazole 4.5 μM)?
The value was 1.00E+05.

What about the “Titer of HSV-2 in media + cell lysate, 24 h” value ([2]; Ilaprazole 4.5 μM) of the same substance?
Its value is 3.60E+07.

What about the “Titer of HSV-2 in media, 48 h” value ([2]; Ilaprazole 4.5 μM) of the same substance?
The value was 2.50E+05.

What about the “Titer of HSV-2 Media, 24 h” value ([2]; Ilaprazole 9.0 μM) of the same substance?
Its value is 5.00E+04.

What about the “Titer of HSV-2 in media + cell lysate, 24 h” value ([2]; Ilaprazole 9.0 μM) of the same substance?
The value was 4.50E+06.

And the “Titer of HSV-2 in media, 48 h” value ([2]; Ilaprazole 9.0 μM)?
Its value is 7.50E+04.

What about the “Titer of HSV-2 Media, 24 h” value ([2]; Ilaprazole 13.5 μM) of the same substance?
The value was 1.00E+04.

What about the “Titer of HSV-2 in media + cell lysate, 24 h” value ([2]; Ilaprazole 13.5 μM) of the same substance?
The value was 4.30E+06.

And the “Titer of HSV-2 in media, 48 h” value ([2]; Ilaprazole 13.5 μM)?
The value was 5.50E+04.

And the “Titer of HSV-2 Media, 24 h” value ([2]; Ilaprazole 18.0 μM)?
Its value is 1.50E+03.

And the “Titer of HSV-2 in media + cell lysate, 24 h” value ([2]; Ilaprazole 18.0 μM)?
Its value is 2.00E+05.

And the “Titer of HSV-2 in media, 48 h” value ([2]; Ilaprazole 18.0 μM)?
The value was 1.50E+03.

What about the “Titer of HSV-2 Media, 24 h” value ([2]; Ilaprazole 22.5 μM) of the same substance?
Its value is 1.00E+02.

And the “Titer of HSV-2 in media + cell lysate, 24 h” value ([2]; Ilaprazole 22.5 μM)?
The value was 1.50E+04.

And the “Titer of HSV-2 in media, 48 h” value ([2]; Ilaprazole 22.5 μM)?
Its value is 3.00E+02.

And the EC50 [2]?
The EC50 was 3 to 9 µM.

What about the “p24 pg/ml HIV” value ([8]; Ilaprazole 0.5 μM) of the same substance?
The value was 4063 pg/mL.

And the “p24 pg/ml HIV” value ([8]; Ilaprazole 1 μM)?
Its value is 3518 pg/mL.

And the “p24 pg/ml HIV” value ([8]; Ilaprazole 2 μM)?
The value was 1652 pg/mL.

What about the “p24 pg/ml HIV” value ([8]; Ilaprazole 5 μM) of the same substance?
Its value is 274 pg/mL.

What about the “p24 pg/ml HIV” value ([8]; Ilaprazole 10 μM) of the same substance?
Its value is 178 pg/mL.

What about the “Toxicity to cells at concentrations that inhibited release of HIV-1” value ([9]; 293T cells) of the same substance?
The value was “did not detect toxicity”.

What about the “96 ® Cell Viability OD490 nm, 24 h” value ([9]; Ilaprazole 1.8 μM) of the same substance?
Its value is 1.672.

What about the “96 ® Cell Viability OD490 nm, 24 h” value ([9]; Ilaprazole 3.6 μM) of the same substance?
The value was 1.576.

What about the “96 ® Cell Viability OD490 nm, 24 h” value ([9]; Ilaprazole 7.2 μM) of the same substance?
Its value is 1.684.

What about the “96 ® Cell Viability OD490 nm, 24 h” value ([9]; Ilaprazole 10.8 μM) of the same substance?
The value was 1.650.

What about the “96 ® Cell Viability OD490 nm, 24 h” value ([9]; Ilaprazole 13.5 μM) of the same substance?
The value was 1.693.

What about the “Titer of HSV-1 Media, 24 h” value ([10]; Ilaprazole 4.5 μM) of the same substance?
The value was 2.00E+06.

And the “Titer of HSV-1 Media, 48 h” value ([10]; Ilaprazole 4.5 μM)?
The value was 2.40E+06.

What about the “Titer of HSV-1 in media + cell lysate, 24 h” value ([10]; Ilaprazole 4.5 μM) of the same substance?
Its value is 7.0E+07.

What about the “Titer of HSV-1 Media, 24 h” value ([10]; Ilaprazole 9.0 μM) of the same substance?
The value was 7.50E+04.

What about the “Titer of HSV-1 Media, 48 h” value ([10]; Ilaprazole 9.0 μM) of the same substance?
The value was 2.50E+05.

What about the “Titer of HSV-1 in media + cell lysate, 24 h” value ([10]; Ilaprazole 9.0 μM) of the same substance?
Its value is 3.6E+06.

And the “Titer of HSV-1 Media, 24 h” value ([10]; Ilaprazole 13.5 μM)?
The value was 3.20E+04.

And the “Titer of HSV-1 Media, 48 h” value ([10]; Ilaprazole 13.5 μM)?
Its value is 2.00E+02.

And the “Titer of HSV-1 in media + cell lysate, 24 h” value ([10]; Ilaprazole 13.5 μM)?
The value was 3.8E+05.

And the “Titer of HSV-1 Media, 24 h” value ([10]; Ilaprazole 18.0 μM)?
The value was 6.00E+02.

And the “Titer of HSV-1 Media, 48 h” value ([10]; Ilaprazole 18.0 μM)?
The value was 0.00E+00.

What about the “Titer of HSV-1 in media + cell lysate, 24 h” value ([10]; Ilaprazole 18.0 μM) of the same substance?
The value was 9.1E+03.

And the “Titer of HSV-1 Media, 24 h” value ([10]; Ilaprazole 22.5 μM)?
The value was 1.00E+02.

What about the “Titer of HSV-1 Media, 48 h” value ([10]; Ilaprazole 22.5 μM) of the same substance?
Its value is 0.00E+00.

What about the “Titer of HSV-1 in media + cell lysate, 24 h” value ([10]; Ilaprazole 22.5 μM) of the same substance?
Its value is 7E+02.

What about the “Inhibition of virus release 4 and 5 days after a single application” value ([10]; data not shown) of the same substance?
The value was “Significant inhibition was still observed”.

And the EC50 ([10]; read-out: EC50, inhibition of HSV-1 release at 72 h, 72 h after a single application)?
The EC50 was 0.8 to 1.2 µM.

What about the EC50 ([10]; read-out: EC50, inhibition of HSV-1 release, 24 h, range stated jointly for HSV-1 and HSV-2) of the same substance?
The EC50 was 3 to 9 µM.

— US20230265069A1, “Small Molecule Inhibitors That Block the Budding of Enveloped Viruses” (priority 2020, published 2023)
